Molecules are shown by their SMILES.

In data set [1] the test system is arteriovenous bypass thrombosis in rats. The data set is described as follows: Arteriovenous bypass thrombosis in rats (Example 4). It is filed as in vivo, rat. Here is the method: Grouping: Divided into 5 groups, with 10 animals in each group. The model control group was given with solvent, and the test drug compound (1) and the positive control were given intravenously once a day for consecutive 3 d. The modeling started 30 min after the last dose.
Model preparation: 50 SD male rats were anesthetized with sodium pentobarbital at a dose of 60 mg/kg via ip. The rat was fixed in the supine position, and the skin was incised at the midline of the neck; the fascia and muscle tissues were separated, the left common carotid artery and the right external jugular vein were dissociated, and the arterio-venous (A-V) bypass surgery was performed using the polyethylene tubing with a built-in thread. The arterial clip was used to clamp the proximal end of the carotid artery, and one end of the polyethylene tubing was inserted into the artery, and another end was inserted into the vein, thereby completing the bypass surgery. 30 minutes after the last dose, the arterial clip was opened, and blood flowed from the left common carotid artery to the right external jugular vein through the bypass tubing, and the blood flow formed a bypass circulation, and the thrombus was taken out 15 min later.
Detection index: the blood flow was open after 15 min, the thread was taken out, the residual liquid was sucked dry, the thread attached with thrombus was weighed and the wet weight of thrombus was calculated; the dry weight of thrombus was weighed and calculated after bake-drying in the oven at 50° C. Thrombosis inhibition rate was calculated. Tails were clipped at the end of the experiment to detect bleeding time.

For data set [2], the system named is rats with focal cerebral ischemia (MCAO)/reperfusion. Put plainly: Preventative administration, cerebral ischemia-reperfusion injury MCAO/R in rats (Example 5). It is filed as in vivo, rat. How it is done:
Experimental method: SD rats were randomly divided into six groups, i.e., pseudosurgery group, model control group, positive control drug ozagre (6 mg/kg) group, and administration drug compound (1) high-dose (67.5 mg/kg) group, medium-dose (22.5 mg/kg) group, and low-dose (7.5 mg/kg) group. The administration group was pre-administered via tail vein injection, while the pseudosurgery group and model control group were given equal volumes of physiological saline once a day for 3 consecutive days. 10 minutes after the last administration, a rat MCAO/R model was established and performed reperfusion 2 hours post ischemia. 24 hours after MCAO reperfusion, the neurobehavioral scores of rats were performed to determine their neurological function; the cerebral infarction rate and cerebral water content in rats were determined using 2,3,5-triphenyltetrazolium chloride (TTC) staining method.

For a further data set, the system named is rats. The data set is described as follows: Bleeding time in rats, tail clipping (Example 4). It is filed as in vivo, rat. How it is done: Grouping: Divided into 5 groups, with 10 animals in each group. […] The modeling started 30 min after the last dose. Detection index: the blood flow was open after 15 min, the thread was taken out, the residual liquid was sucked dry, the thread attached with thrombus was weighed and the wet weight of thrombus was calculated; the dry weight of thrombus was weighed and calculated after bake-drying in the oven at 50° C. Thrombosis inhibition rate was calculated. Tails were clipped at the end of the experiment to detect bleeding time.

Data set [3] concerns vascular endothelial injury induced thrombosis model in zebrafish. Put plainly: Preventative effect on vascular endothelial injury induced thrombosis, ponatinib zebrafish model (Example 1). As to conditions: 30.0 μg/mL dissolved in water. It is filed as in vivo.
Data set [4] concerns vascular endothelial-injury thrombosis model in zebrafish. Put plainly: Preventative effect of compound (1) on vascular endothelial injury induced thrombosis in zebrafish (Example 3). It is filed as in vivo. Conditions: 30 μg/mL in water. Here is the method: Experimental method: Wild-type AB strain zebrafish were treated with 4 μg/mL punatinib for 18 h to establish vascular endothelial-injury thrombosis model in zebrafish. 150 of 5 dpf wild-type AB strain zebrafish were randomly selected and placed in six-well plates with 30 fish per well (experimental group). The zebrafish were injected with compound (1) at a dose of 2.06 ng/tail, and 6.18 ng/tail, and the positive control drug acetylsalicylic acid was given by dissolving it in water with a concentration of 30 µg/mL, while the normal control group (i.e., zebrafish treated with standard dilution water) and the model control group were set up, and the volume of each well (experimental group) was 3 mL. Except for normal control group, the remaining experimental groups were all given Punatinib by dissolving it in water to induce vascular endothelial injury thrombosis model in zebrafish. The zebrafish were co-treated with compound (1) and punatinib for a period of time under incubation condition at 28° C., and then stained with o-dianisidine. After staining, 10 zebrafish were randomly selected from each group and photographed under the microscope. The intensity of cardiac erythrocyte staining in zebrafish was analyzed using NIS-Elements D 3.10 advanced image-processing software, and the preventative effect of compound (I) on vascular endothelial injury thrombosis was evaluated based on the statistical results of cardiac erythrocyte staining intensity. The preventative effect on thrombosis is calculated as follows: […]
Statistical analysis were performed using Analysis of Variance and Dunnett's t-test, and p<0.05 indicates a significant difference, providing a representative experimental plot.

Where [5] appears, read: 16 mg/kg i.v. once a day 3 d, in g (unit assumed).

For `O=C(O)/C=C/c1ccc(Cn2ccnc2)cc1` [Ozagre, ozagrel, reference compound], in data set [1] (16 mg/kg i.v.), the “Dry weight inhibition rate (%)” value was found to be 34.1% and the “Wet weight inhibition rate (%)” value is recorded as 34%. Besides, in data set [1] (setting [5]), the “Dry weight of thrombus” value is on record as 0.0054 ± 0.0018 and the “Wet weight of thrombus” value is 0.0208 ± 0.0041. Besides, the “Cerebral infarction rate (%)” value in data set [2] (6 mg/kg tail vein, once a day 3 days before MCAO/R, 24 h after reperfusion, mean ± SD, n = 8) is on record as 14.39 ± 8.14 %. This compound also registered a Behavioral score in data set [2] (6 mg/kg, preventative) of 1.50 ± 0.56. For the same compound, the “Cerebral water content (%)” value in data set [2] (6 mg/kg, preventative, tail vein 3 days) is 78.42 ± 3.73 %. Moreover, the “Bleeding time” value with rats (16 mg/kg i.v.) was 740.8 ± 224 s. Moreover, the “Effect on the bleeding time in rats, in words” value in the data set with rats (intravenous, compared with model control group) was “significantly prolonged”.

In the case of `CC(=O)Oc1ccccc1C(=O)O` [Acetylsalicylic acid, acetylsalicylic acid, reference compound], the “Preventative effect on thrombosis (%)” value in data set [3] is given as 101%. Further, the results for the “Cardiac erythrocyte staining intensity (pixels, mean ± SE)” value in data set [3] (n = 10) and in data set [4] (n = 10) were 5345 ± 228 pixels and 4655 ± 136 pixels, respectively. In addition, in data set [4], the “Thromboprophylactic effect (%)” value stood at 85%.

The record behind these values is patent US20250064886A1, “CARDIOVASCULAR AND CEREBROVASCULAR DRUG AND USE THEREOF” (HANGZHOU ADAMERCK PHARMLABS INC., priority 2021, published 2025).
